Assays:
Format in all cases: in vivo
Phakopsora pachyrhizi [1] = assay: Test Example 5: test of effect on Phakopsora pachyrhizi on soybean, foliar spray; conditions: soybean (Natto shoryu), inoculated 14 days after spraying, lesion area of first trifoliate
Method: (§1) Based on the lesion areas in the treated plot and the non-treated plot, the effect of the treated plot was calculated according to the following formula (I). The results are shown in [Table 1]. Effect(%)=(1−(lesion area in treated plot)/(lesion area in non-treated plot))×100 formula (1)
(§2) Test of Effect on Phakopsora pachyrhizi
(§3) A plastic pot was stuffed with a soil, soybean (variety; Natto shoryu) was sown on this, and allowed to grow in a greenhouse until unfolding of the unifoliate. The present carboxamide compounds (2) and (3) and racemic N-(1,1,3-trimethylindan-4-yl)-1-methyl-3-difluoromethylpyrazole-4-carboxamide (hereinafter, referred to as racemic compound (B)) and racemic N-(1,1,3-trimethylindan-4-yl)-1,3,5-trimethylpyrazole-4-carboxamide (hereinafter, referred to as racemic compound (C)) were prepared into formulations according to Formulation Example 6, then, the formulations were diluted with water to attain a prescribed concentration, and sprayed to foliar part so as to satisfactorily adhere to the leaf surfaces of the soybean. The soybean was further cultivated at room temperature for 14 days, and grown until unfolding of the first trifoliate. The plant was inoculated with an aqueous suspension of Phakopsora pachyrhizi spores by spraying. After inoculation, the plant was allowed to stand under humid condition at 23° C. overnight, further, allowed to stand for 7 days at room temperature, then, the lesion area of the first trifoliate was checked.
Based on the lesion areas in the treated plot and the non-treated plot, the effect of the treated plot was calculated according to the above-described formula (I). The results are shown in [Table 2].

[2] = tested on: Mycosphaerella graminicola (Septoria tritici); assay: Test of effect of preventing Mycosphaerella graminicola (Septoria tritici) on wheat, foliar spray; conditions: 50 ppm foliar spray; wheat (Apogee); inoculated two days after spraying
Method: The control effect was evaluated by visually observing the area of a lesion on a test plant in investigation, and comparing the area of a lesion on a plant treated with a test composition and the area of a lesion on a non-treated plant.
Test of Effect of Preventing Mycosphaerella graminicola (Septoria tritici)
A plastic pot was stuffed with a soil, wheat (variety; Apogee) was sown on this, and allowed to grow in a greenhouse for 10 days. […] After spraying, the plant was air-dried, and two days after, inoculated with an aqueous suspension of Septoria tritici spores by spraying. After inoculation, the plant was first allowed to stand under humid condition at 18° C. for 3 days, further, allowed to stand for 14 to 18 days under illumination, then, the lesion area was checked. As a result, the lesion on the plant treated with the present carboxamide compounds (1), (2) and (3) was 10% or less of the lesion area on a non-treated plant.
The same test was carried out excepting the application concentration, using racemic N-(1,1,3-trimethylindan-4-yl)-1-methyl-3-trifluoromethylpyrazole-4-carboxylic amide (hereinafter, referred to as racemic compound (A)) instead of the present carboxamide compound. As a result, the lesion area on the plant treated with 50 ppm of the racemic compound (A) was 75% or more of the lesion area on a non-treated plant.

Phakopsora pachyrhizi [3] = assay: Test Example 4: test of effect on Phakopsora pachyrhizi on soybean, foliar spray; conditions: 50 ppm; soybean (Natto shoryu); inoculated 14 days after spraying; lesion area of first trifoliate
Method: as §2
as §3, with “carboxamide” for “carboxamide compounds (2) and (3) and racemic N-(1,1,3-trimethylindan-4-yl)-1-methyl-3-difluoromethylpyrazole-4-carboxamide (hereinafter, referred to as racemic”, “compound (1) was” for “compound (B)) and racemic N-(1,1,3-trimethylindan-4-yl)-1,3,5-trimethylpyrazole-4-carboxamide (hereinafter, referred to as racemic compound (C)) were”, “cultivated in greenhouse” for “cultivated at room temperature”, “first trifolidate.” for “first trifoliate.”
as §1

CC1CC(C)(C)c2cccc(NC(=O)c3cn(C)nc3C(F)F)c21 (racemic) [Racemic compound (B), N-(1,1,3-trimethylindan-4-yl)-1-methyl-3-difluoromethylpyrazole-4-carboxamide, reference compound]
Effect [%] (Phakopsora pachyrhizi [1]; 200 ppm): 46.7%

Cc1nn(C)c(C)c1C(=O)Nc1cccc2c1C(C)CC2(C)C (racemic) [Racemic compound (C), N-(1,1,3-trimethylindan-4-yl)-1,3,5-trimethylpyrazole-4-carboxamide, reference compound]
Effect [%] (Phakopsora pachyrhizi [1]; 200 ppm): 76.5%

CC1CC(C)(C)c2cccc(NC(=O)c3cn(C)nc3C(F)(F)F)c21 (racemic) [racemic compound (A), N-(1,1,3-trimethylindan-4-yl)-1-methyl-3-trifluoromethylpyrazole-4-carboxylic amide]
lesion area on treated plant relative to lesion area on a non-treated plant [2]: ≥ 75%

C[C@@H]1CC(C)(C)c2cccc(NC(=O)c3cn(C)nc3C(F)(F)F)c21 [present carboxamide compound (1), (R)-(−)-N-(1,1,3-trimethylindan-4-yl)-1-methyl-3-trifluoromethylpyrazole-4-carboxamide]
Effect [%] (Phakopsora pachyrhizi [3]): 98.1%

C[C@@H]1CC(C)(C)c2cccc(NC(=O)c3cn(C)nc3C(F)F)c21 [present carboxamide compound (2), (R)-(−)-N-(1,1,3-trimethylindan-4-yl)-1-methyl-3-difluoromethylpyrazole-4-carboxamide]
Effect [%] (Phakopsora pachyrhizi [1]; 100 ppm): 77.1% | Effect [%] (Phakopsora pachyrhizi [1]; 200 ppm): 100%

Cc1nn(C)c(C)c1C(=O)Nc1cccc2c1[C@H](C)CC2(C)C [present carboxamide compound (3), (R)-(−)-N-(1,1,3-trimethylindan-4-yl)-1,3,5-trimethylpyrazole-4-carboxamide]
Effect [%] (Phakopsora pachyrhizi [1]; 100 ppm): 98.4% | Effect [%] (Phakopsora pachyrhizi [1]; 200 ppm): 100%

— patent publication US8580836B2, “Plant disease control composition and method of controlling plant disease” (Sumitomo Chemical Company, Limited, priority 2010, dated 2013)
